Measured values taken from ChEMBL document CHEMBL2346657, “Synthesis of novel 2-amino-4-(5'-substituted 2'-phenyl-1H-indol-3'-yl)-6-aryl-4H-pyran-3-carbonitrile derivatives as antimicrobial and antioxidant agents” (2013).
Active and inactive are the calls of the source. The rule behind the calls is not given here.

Test system: Staphylococcus aureus
Assay: Antimicrobial activity against Staphylococcus aureus ATCC 29513 at 1000 ug/ml after 24 hrs by cup plate method
Assay type: functional
Conditions: ATCC 29513, 24 h, read-out: IZ

Compound	zone of inhibition at 1000 µg/mL [mm]
Cc1ccc(C2=CC(c3c(-c4ccccc4)[nH]c4ccc(C)cc34)c3c(N)nc(=O)[nH]c3O2)cc1 (stereo not given)	2
Cc1ccc(C2=CC(c3c(-c4ccccc4)[nH]c4ccc(C)cc34)c3c(N)nc(=S)[nH]c3O2)cc1 (stereo not given)	0

Test system: Klebsiella pneumoniae
Assay: Antimicrobial activity against Klebsiella pneumoniae NCTC 13368 at 500 ug/ml after 24 hrs by cup plate method
Assay type: functional
Conditions: NCTC 13368, 24 h, read-out: IZ

Compound	zone of inhibition at 500 µg/mL [mm]
Cc1ccc(C2=CC(c3c(-c4ccccc4)[nH]c4ccc(C)cc34)c3c(N)nc(=O)[nH]c3O2)cc1 (stereo not given)	10
Cc1ccc(C2=CC(c3c(-c4ccccc4)[nH]c4ccc(C)cc34)c3c(N)nc(=S)[nH]c3O2)cc1 (stereo not given)	6

Test system: Aspergillus terreus
Assay: Antimicrobial activity against Aspergillus terreus MTCC 1782 at 500 ug/ml after 72 hrs by cup plate method
Assay type: functional
Conditions: MTCC 1782, 72 h, read-out: IZ

Compound	zone of inhibition at 500 µg/mL [mm]
Cc1ccc(C2=CC(c3c(-c4ccccc4)[nH]c4ccc(C)cc34)c3c(N)nc(=O)[nH]c3O2)cc1 (stereo not given)	9
Cc1ccc(C2=CC(c3c(-c4ccccc4)[nH]c4ccc(C)cc34)c3c(N)nc(=S)[nH]c3O2)cc1 (stereo not given)	5

Test system: Aspergillus flavus
Assay: Antimicrobial activity against Aspergillus flavus MTCC 1973 at 500 ug/ml after 72 hrs by cup plate method
Assay type: functional
Conditions: MTCC 1973, 72 h, read-out: IZ

Compound	zone of inhibition at 500 µg/mL [mm]
Cc1ccc(C2=CC(c3c(-c4ccccc4)[nH]c4ccc(C)cc34)c3c(N)nc(=O)[nH]c3O2)cc1 (stereo not given)	2
Cc1ccc(C2=CC(c3c(-c4ccccc4)[nH]c4ccc(C)cc34)c3c(N)nc(=S)[nH]c3O2)cc1 (stereo not given)	9

Test system: Pseudomonas aeruginosa
Assay: Antimicrobial activity against Pseudomonas aeruginosa MTCC 1688 at 750 ug/ml after 24 hrs by cup plate method
Assay type: functional
Conditions: MTCC 1688, 24 h, read-out: IZ

Compound	zone of inhibition at 750 µg/mL [mm]
Cc1ccc(C2=CC(c3c(-c4ccccc4)[nH]c4ccc(C)cc34)c3c(N)nc(=O)[nH]c3O2)cc1 (stereo not given)	10
Cc1ccc(C2=CC(c3c(-c4ccccc4)[nH]c4ccc(C)cc34)c3c(N)nc(=S)[nH]c3O2)cc1 (stereo not given)	5

Test system: Aspergillus terreus
Assay: Antimicrobial activity against Aspergillus terreus MTCC 1782 at 750 ug/ml after 72 hrs by cup plate method
Assay type: functional
Conditions: MTCC 1782, 72 h, read-out: IZ

Compound	zone of inhibition at 750 µg/mL [mm]
Cc1ccc(C2=CC(c3c(-c4ccccc4)[nH]c4ccc(C)cc34)c3c(N)nc(=O)[nH]c3O2)cc1 (stereo not given)	9
Cc1ccc(C2=CC(c3c(-c4ccccc4)[nH]c4ccc(C)cc34)c3c(N)nc(=S)[nH]c3O2)cc1 (stereo not given)	5

Test system: Aspergillus niger
Assay: Antimicrobial activity against Aspergillus niger MTCC 281 at 1000 ug/ml after 72 hrs by cup plate method
Assay type: functional
Conditions: MTCC 281, 72 h, read-out: IZ

Compound	zone of inhibition at 1000 µg/mL [mm]
Cc1ccc(C2=CC(c3c(-c4ccccc4)[nH]c4ccc(C)cc34)c3c(N)nc(=O)[nH]c3O2)cc1 (stereo not given)	10
Cc1ccc(C2=CC(c3c(-c4ccccc4)[nH]c4ccc(C)cc34)c3c(N)nc(=S)[nH]c3O2)cc1 (stereo not given)	0

Test system: Klebsiella pneumoniae
Assay: Antimicrobial activity against Klebsiella pneumoniae NCTC 13368 at 1000 ug/ml after 24 hrs by cup plate method
Assay type: functional
Conditions: NCTC 13368, 24 h, read-out: IZ

Compound	zone of inhibition at 1000 µg/mL [mm]
Cc1ccc(C2=CC(c3c(-c4ccccc4)[nH]c4ccc(C)cc34)c3c(N)nc(=O)[nH]c3O2)cc1 (stereo not given)	10
Cc1ccc(C2=CC(c3c(-c4ccccc4)[nH]c4ccc(C)cc34)c3c(N)nc(=S)[nH]c3O2)cc1 (stereo not given)	5

Test system: Staphylococcus aureus
Assay: Antimicrobial activity against Staphylococcus aureus ATCC 29513 at 500 ug/ml after 24 hrs by cup plate method
Assay type: functional
Conditions: ATCC 29513, 24 h, read-out: IZ

Compound	zone of inhibition at 500 µg/mL [mm]
Cc1ccc(C2=CC(c3c(-c4ccccc4)[nH]c4ccc(C)cc34)c3c(N)nc(=O)[nH]c3O2)cc1 (stereo not given)	8
Cc1ccc(C2=CC(c3c(-c4ccccc4)[nH]c4ccc(C)cc34)c3c(N)nc(=S)[nH]c3O2)cc1 (stereo not given)	0

Test system: Escherichia coli
Assay: Antimicrobial activity against Escherichia coli MTCC 723 at 1000 ug/ml after 24 hrs by cup plate method
Assay type: functional
Conditions: MTCC 723, 24 h, read-out: IZ

Compound	zone of inhibition at 1000 µg/mL [mm]
Cc1ccc(C2=CC(c3c(-c4ccccc4)[nH]c4ccc(C)cc34)c3c(N)nc(=O)[nH]c3O2)cc1 (stereo not given)	14
Cc1ccc(C2=CC(c3c(-c4ccccc4)[nH]c4ccc(C)cc34)c3c(N)nc(=S)[nH]c3O2)cc1 (stereo not given)	4

Test system: Klebsiella pneumoniae
Assay: Antimicrobial activity against Klebsiella pneumoniae NCTC 13368 at 750 ug/ml after 24 hrs by cup plate method
Assay type: functional
Conditions: NCTC 13368, 24 h, read-out: IZ

Compound	zone of inhibition at 750 µg/mL [mm]
Cc1ccc(C2=CC(c3c(-c4ccccc4)[nH]c4ccc(C)cc34)c3c(N)nc(=O)[nH]c3O2)cc1 (stereo not given)	10
Cc1ccc(C2=CC(c3c(-c4ccccc4)[nH]c4ccc(C)cc34)c3c(N)nc(=S)[nH]c3O2)cc1 (stereo not given)	5

Test system: Aspergillus oryzae
Assay: Antimicrobial activity against Aspergillus oryzae MTCC 3567 at 500 ug/ml after 72 hrs by cup plate method
Assay type: functional
Conditions: MTCC 3567, 72 h, read-out: IZ

Compound	zone of inhibition at 500 µg/mL [mm]
Cc1ccc(C2=CC(c3c(-c4ccccc4)[nH]c4ccc(C)cc34)c3c(N)nc(=O)[nH]c3O2)cc1 (stereo not given)	0
Cc1ccc(C2=CC(c3c(-c4ccccc4)[nH]c4ccc(C)cc34)c3c(N)nc(=S)[nH]c3O2)cc1 (stereo not given)	5

Test system: Aspergillus flavus
Assay: Antimicrobial activity against Aspergillus flavus MTCC 1973 at 750 ug/ml after 72 hrs by cup plate method
Assay type: functional
Conditions: MTCC 1973, 72 h, read-out: IZ

Compound	zone of inhibition at 750 µg/mL [mm]
Cc1ccc(C2=CC(c3c(-c4ccccc4)[nH]c4ccc(C)cc34)c3c(N)nc(=O)[nH]c3O2)cc1 (stereo not given)	2
Cc1ccc(C2=CC(c3c(-c4ccccc4)[nH]c4ccc(C)cc34)c3c(N)nc(=S)[nH]c3O2)cc1 (stereo not given)	8

Test system: Aspergillus flavus
Assay: Antimicrobial activity against Aspergillus flavus MTCC 1973 at 1000 ug/ml after 72 hrs by cup plate method
Assay type: functional
Conditions: MTCC 1973, 72 h, read-out: IZ

Compound	zone of inhibition at 1000 µg/mL [mm]
Cc1ccc(C2=CC(c3c(-c4ccccc4)[nH]c4ccc(C)cc34)c3c(N)nc(=O)[nH]c3O2)cc1 (stereo not given)	2
Cc1ccc(C2=CC(c3c(-c4ccccc4)[nH]c4ccc(C)cc34)c3c(N)nc(=S)[nH]c3O2)cc1 (stereo not given)	9

Test system: Staphylococcus aureus
Assay: Antimicrobial activity against Staphylococcus aureus ATCC 29513 at 750 ug/ml after 24 hrs by cup plate method
Assay type: functional
Conditions: ATCC 29513, 24 h, read-out: IZ

Compound	zone of inhibition at 750 µg/mL [mm]
Cc1ccc(C2=CC(c3c(-c4ccccc4)[nH]c4ccc(C)cc34)c3c(N)nc(=O)[nH]c3O2)cc1 (stereo not given)	5
Cc1ccc(C2=CC(c3c(-c4ccccc4)[nH]c4ccc(C)cc34)c3c(N)nc(=S)[nH]c3O2)cc1 (stereo not given)	0

Test system: Pseudomonas aeruginosa
Assay: Antimicrobial activity against Pseudomonas aeruginosa MTCC 1688 at 500 ug/ml after 24 hrs by cup plate method
Assay type: functional
Conditions: MTCC 1688, 24 h, read-out: IZ

Compound	zone of inhibition at 500 µg/mL [mm]
Cc1ccc(C2=CC(c3c(-c4ccccc4)[nH]c4ccc(C)cc34)c3c(N)nc(=O)[nH]c3O2)cc1 (stereo not given)	10
Cc1ccc(C2=CC(c3c(-c4ccccc4)[nH]c4ccc(C)cc34)c3c(N)nc(=S)[nH]c3O2)cc1 (stereo not given)	6

Test system: Escherichia coli
Assay: Antimicrobial activity against Escherichia coli MTCC 723 at 500 ug/ml after 24 hrs by cup plate method
Assay type: functional
Conditions: MTCC 723, 24 h, read-out: IZ

Compound	zone of inhibition at 500 µg/mL [mm]
Cc1ccc(C2=CC(c3c(-c4ccccc4)[nH]c4ccc(C)cc34)c3c(N)nc(=O)[nH]c3O2)cc1 (stereo not given)	13
Cc1ccc(C2=CC(c3c(-c4ccccc4)[nH]c4ccc(C)cc34)c3c(N)nc(=S)[nH]c3O2)cc1 (stereo not given)	5

Test system: not listed separately
Assay: Antioxidant activity assessed as metal chelating activity by measuring inhibition of ferrozine-Fe2+ complex formation at 25 to 100 ug/ml
Assay type: functional
Conditions: not given

Compound	Activity
Cc1ccc(C2=CC(c3c(-c4ccccc4)[nH]c4ccc(C)cc34)c3c(N)nc(=O)[nH]c3O2)cc1 (stereo not given)	Active
Cc1ccc(C2=CC(c3c(-c4ccccc4)[nH]c4ccc(C)cc34)c3c(N)nc(=S)[nH]c3O2)cc1 (stereo not given)	Active

Test system: Aspergillus oryzae
Assay: Antimicrobial activity against Aspergillus oryzae MTCC 3567 at 1000 ug/ml after 72 hrs by cup plate method
Assay type: functional
Conditions: MTCC 3567, 72 h, read-out: IZ

Compound	zone of inhibition at 1000 µg/mL [mm]
Cc1ccc(C2=CC(c3c(-c4ccccc4)[nH]c4ccc(C)cc34)c3c(N)nc(=O)[nH]c3O2)cc1 (stereo not given)	0
Cc1ccc(C2=CC(c3c(-c4ccccc4)[nH]c4ccc(C)cc34)c3c(N)nc(=S)[nH]c3O2)cc1 (stereo not given)	5

Test system: Pseudomonas aeruginosa
Assay: Antimicrobial activity against Pseudomonas aeruginosa MTCC 1688 at 1000 ug/ml after 24 hrs by cup plate method
Assay type: functional
Conditions: MTCC 1688, 24 h, read-out: IZ

Compound	zone of inhibition at 1000 µg/mL [mm]
Cc1ccc(C2=CC(c3c(-c4ccccc4)[nH]c4ccc(C)cc34)c3c(N)nc(=O)[nH]c3O2)cc1 (stereo not given)	10
Cc1ccc(C2=CC(c3c(-c4ccccc4)[nH]c4ccc(C)cc34)c3c(N)nc(=S)[nH]c3O2)cc1 (stereo not given)	5

Test system: Aspergillus oryzae
Assay: Antimicrobial activity against Aspergillus oryzae MTCC 3567 at 750 ug/ml after 72 hrs by cup plate method
Assay type: functional
Conditions: MTCC 3567, 72 h, read-out: IZ

Compound	zone of inhibition at 750 µg/mL [mm]
Cc1ccc(C2=CC(c3c(-c4ccccc4)[nH]c4ccc(C)cc34)c3c(N)nc(=O)[nH]c3O2)cc1 (stereo not given)	0
Cc1ccc(C2=CC(c3c(-c4ccccc4)[nH]c4ccc(C)cc34)c3c(N)nc(=S)[nH]c3O2)cc1 (stereo not given)	5

Test system: Escherichia coli
Assay: Antimicrobial activity against Escherichia coli MTCC 723 at 750 ug/ml after 24 hrs by cup plate method
Assay type: functional
Conditions: MTCC 723, 24 h, read-out: IZ

Compound	zone of inhibition at 750 µg/mL [mm]
Cc1ccc(C2=CC(c3c(-c4ccccc4)[nH]c4ccc(C)cc34)c3c(N)nc(=O)[nH]c3O2)cc1 (stereo not given)	13
Cc1ccc(C2=CC(c3c(-c4ccccc4)[nH]c4ccc(C)cc34)c3c(N)nc(=S)[nH]c3O2)cc1 (stereo not given)	4

Test system: Aspergillus niger
Assay: Antimicrobial activity against Aspergillus niger MTCC 281 at 500 ug/ml after 72 hrs by cup plate method
Assay type: functional
Conditions: MTCC 281, 72 h, read-out: IZ

Compound	zone of inhibition at 500 µg/mL [mm]
Cc1ccc(C2=CC(c3c(-c4ccccc4)[nH]c4ccc(C)cc34)c3c(N)nc(=O)[nH]c3O2)cc1 (stereo not given)	10
Cc1ccc(C2=CC(c3c(-c4ccccc4)[nH]c4ccc(C)cc34)c3c(N)nc(=S)[nH]c3O2)cc1 (stereo not given)	0

Test system: Aspergillus niger
Assay: Antimicrobial activity against Aspergillus niger MTCC 281 at 750 ug/ml after 72 hrs by cup plate method
Assay type: functional
Conditions: MTCC 281, 72 h, read-out: IZ

Compound	zone of inhibition at 750 µg/mL [mm]
Cc1ccc(C2=CC(c3c(-c4ccccc4)[nH]c4ccc(C)cc34)c3c(N)nc(=O)[nH]c3O2)cc1 (stereo not given)	10
Cc1ccc(C2=CC(c3c(-c4ccccc4)[nH]c4ccc(C)cc34)c3c(N)nc(=S)[nH]c3O2)cc1 (stereo not given)	0

Test system: Aspergillus terreus
Assay: Antimicrobial activity against Aspergillus terreus MTCC 1782 at 1000 ug/ml after 72 hrs by cup plate method
Assay type: functional
Conditions: MTCC 1782, 72 h, read-out: IZ

Compound	zone of inhibition at 1000 µg/mL [mm]
Cc1ccc(C2=CC(c3c(-c4ccccc4)[nH]c4ccc(C)cc34)c3c(N)nc(=O)[nH]c3O2)cc1 (stereo not given)	9
Cc1ccc(C2=CC(c3c(-c4ccccc4)[nH]c4ccc(C)cc34)c3c(N)nc(=S)[nH]c3O2)cc1 (stereo not given)	5
